Assay results taken from paper PMC12456999, “Sulfonyl Homoserine Lactones Are Tunable Probes to Inhibit the Quorum Sensing Receptor RhlR and Reduce Swarming Motility in Pseudomonas aeruginosa” (ACS Infectious Diseases, 2025).
Read-outs that look alike come from different tables or passages of the source. Marks after values point to notes of the source that are not given here.

Columns and labels:
RhlR = molecular target: T1, RhlR (Pseudomonas aeruginosa, UniProt P54292); assay: E. coli (JLD271) RhlR reporter antagonism assay, in competition with BHL; assay type: cell-based; details: for max. RhlR inhibition (%): BHL at 10 μM set to 0%, media control set to 100%; for potency gain: 33 vs 16, 43 vs 24, 86 vs 45
T1 construct: expressed in transfected cells; host or cells: E. coli JLD271 (K-12 ΔlacX74 sdiA271::Cam) carrying pJN105-R2 (RhlR expression) and pSC11-rhlI (rhlI'-lacZ reporter)
Experimental: To start, the sulfonyl HLs were evaluated for their ability to antagonize RhlR using a previously described E. coli strain (JLD271) harboring a RhlR expression plasmid and a rhlI reporter plasmid. This E. coli reporter produces RhlR, and protein activity in the presence of an added small molecule can be measured via the production of β-galactosidase as quantified via luminescence (see Methods). Compounds were screened in competition against RhlR’s native ligand, BHL (at its EC50 value in this strain, 10 μM), over a range of concentrations to generate antagonism dose–response curves (see Supporting Information) and calculate IC50 values (listed in Table ). A small set of compounds was also screened for RhlR agonism in the E. coli reporter; the agonism assay format was identical to the antagonism assay, except no BHL was added.
RhlR activity in E. coli strain JLD271 (ΔsdiA) was measured via a β-galactosidase reporter (rhI-lacZ) using the Promega Beta-Glo Assay System as previously described. RhlR activity in P. aeruginosa PA14 (ΔrhlIΔlasI) was measured via a GFP reporter (rhlA-gfp). […] See Supporting Information for both reporter protocols.
Supporting Information — Aguirre-Figueroa et al.
E. coli and P. aeruginosa RhlR reporter assay protocols.
E. coli RhlR reporter assay. RhlR activity in E. coli strain JLD271 (ΔsdiA) was measured via a β-galactosidase reporter using the Promega Beta-Glo® Assay System as previously described.10 A schematic of the reporter plasmids and assay protocol is shown in Scheme S1. Briefly, a single colony of E. coli JLD271 harboring the RhlR expression plasmid pJN105-R and the rhlI-lacZ transcriptional fusion reporter pSC11-R (Table S1) was grown in LB medium with 100 μg/mL ampicillin and 10 μg/mL gentamicin overnight (~16 h). The culture was diluted 1:10 in fresh LB medium and grown to an OD600 = 0.25 (0.23–0.28) (~0.5 h). Arabinose was added to a final concentration of 4 mg/mL to induce the expression of pJN105-R. Aliquots (2 μL) of compound DMSO stock solution or serial dilution were added to the inner wells (i.e., non-periphery rows) of a 96-well microtiter plate. To six inner wells, DMSO alone (vehicle) was added as a negative control. For agonism assays, BHL was added to six inner wells as a positive control (to achieve 1 mM). For antagonism assays, BHL was added to six inner wells as a positive control and to all of the other sample wells except for the vehicle control wells (to achieve 10 μM ). Subculture (198 μL) was then dispensed into each inner well. To the outer (periphery) wells, 200 μL of water were added to maintain humidity during incubation. Plates were then incubated for 4 h (shaking) at 37 °C.
Scheme S1. Schematic of E. coli reporter plasmids and assay. (A) Representation of plasmids used in the heterologous reporter system. (B) General reporter assay workflow. BioRender used in […]
After the incubation period, the OD600 of each well was measured using a plate reader. Cell dilution plates were prepared by transferring 10 μL from the incubated culture plate wells to a fresh 96-well plate and adding 90 μL of 18 MΩ water to each well. Next, 10 μL aliquots of diluted Beta-Glo® reagent (1:2 with 18 MΩ water) were added to each well of a white 384-well microtiter plate, followed by 10 μL of culture from each well of the dilution plate. The 384-well plate was incubated (without shaking; i.e., static) for 30 min at 30 °C. After incubation, luminescence of each well was measured using a plate reader. To determine levels of RhlR activity, raw luminescence was divided by OD600 to correct for growth variation and then normalized to the negative (0%) and positive (100%) control wells.
Dose-response reporter assay data for compounds in the E. coli RhlR reporter.
Dose-response curves for RhlR antagonism by compounds against 10 μM BHL using the E. coli JLD271 RhlR reporter are provided below. Compound names are indicated on the x-axis of each plot.
All assays performed in triplicate as at least three separate biological replicates. […]

bacterial growth = assay: Effect on bacterial growth (OD600 over time); assay type: cell-based; details: at >2 mM concentrations
Experimental: All new compounds were fully characterized for purity and identity (see Supporting Information). […] The remaining compounds had no effect on growth over the concentration range tested. All compounds were tested in bacteriological assays in triplicate and in at least three separate trials using unique cultures. IC50 and EC50 values in reporter assays were calculated using GraphPad Prism software (version 9.0) with a variable slope sigmoidal curve fit.

[1] = IC50, E. coli JLD271 RhlR reporter, against 10 μM BHL
[2] = E. coli JLD271 RhlR reporter, against 10 μM BHL
[3] = read-out: inhibitory potency on average (74, 75 and 18), average over the C4, C5 and C6 ASHLs, E. coli RhlR reporter

T1 sequence (P54292 whole entry): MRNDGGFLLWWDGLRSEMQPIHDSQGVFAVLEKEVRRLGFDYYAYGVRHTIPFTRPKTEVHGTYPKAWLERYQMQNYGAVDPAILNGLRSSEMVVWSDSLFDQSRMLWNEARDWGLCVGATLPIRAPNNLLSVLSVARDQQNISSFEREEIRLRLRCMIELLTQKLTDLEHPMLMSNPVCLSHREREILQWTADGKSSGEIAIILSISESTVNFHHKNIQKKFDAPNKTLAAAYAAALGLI

Structure (SMILES) | max. RhlR inhibition (%) (RhlR; E. coli RhlR reporter) | IC50 (RhlR; [1]) | also measured
Cc1ccc(CS(=O)(=O)N[C@H]2CCOC2=O)cc1 [Compound 13, 4-Me BnSHL] | 90% | 918 µM | fold less potent than parent 4-Me PHL (RhlR; E. coli RhlR reporter IC50, comparator printed as 19): ~170 fold
O=C1OCC[C@@H]1NS(=O)(=O)Cc1ccc([N+](=O)[O-])cc1 [Compound 16, 4-NO2 BnSHL] | 97% | 1290 µM | –
CCCCCCS(=O)(=O)N[C@H]1CCOC1=O [Compound 18] | 77% | – | IC50 (RhlR; [2]): 36.4 µM; IC50 (RhlR; [3]): ~28 µM
O=C1OCC[C@@H]1NS(=O)(=O)Cc1ccc(Br)cc1 [Compound 19, 4-Br BnSHL] | 77% | 348 µM | fold more potent in RhlR than 13 or 16 (RhlR; E. coli RhlR reporter IC50): approximately 3 fold
O=C1OCC[C@@H]1NS(=O)(=O)Cc1ccc(Cl)cc1 [Compound 21, 4-Cl BnSHL] | 99% | 219 µM | fold more potent in RhlR than 13 or 16 (RhlR; E. coli RhlR reporter IC50): approximately 3 fold
O=C1OCC[C@@H]1NS(=O)(=O)Cc1ccc(F)cc1 [Compound 22, 4-F BnSHL] | 94% | 205 µM | fold more potent in RhlR than 13 or 16 (RhlR; E. coli RhlR reporter IC50): approximately 3 fold
O=C1OCC[C@@H]1NS(=O)(=O)c1ccc(Cl)cc1Cl [Compound 24, 2,4-di-Cl-BSHL] | 99% | 1590 µM | –
O=C1OCC[C@@H]1NS(=O)(=O)c1ccc(Cl)cc1 [Compound 26] | 96% | 452 µM | effect on bacterial growth (bacterial growth): modest effect on bacterial growth
O=C1OCC[C@@H]1NS(=O)(=O)c1ccccc1Cl [Compound 27, 2-chloro BSHL] | 93% | 545 µM | effect on bacterial growth (bacterial growth): modest effect on bacterial growth
O=C1OCC[C@@H]1NS(=O)(=O)c1cccc(Cl)c1 [Compound 28, 3-chloro-BSHL] | 97% | 143 µM | fold more potent than 26 and 27 (RhlR; E. coli RhlR reporter IC50): 3 fold
O=C1OCC[C@@H]1NS(=O)(=O)Cc1cccc(Cl)c1 [Compound 33, 3-Cl BnSHL] | 99% | 125 µM | effect on bacterial growth (bacterial growth): modest effect on bacterial growth; potency gain (RhlR; E. coli RhlR reporter IC50): ≤ 40 fold
O=C1OCC[C@@H]1NS(=O)(=O)c1ccc(Br)cc1 [Compound 35, 4-bromo BSHL] | 99% | 166 µM | effect on bacterial growth (bacterial growth): modest effect on bacterial growth
O=C1OCC[C@@H]1NS(=O)(=O)c1ccc(I)cc1 [Compound 36] | 99% | 295 µM | –
O=C1OCC[C@@H]1NS(=O)(=O)c1ccc(C(F)(F)F)cc1 [Compound 37] | 99% | 333 µM | –
O=C1OCC[C@@H]1NS(=O)(=O)c1cccc(Cl)c1Cl [Compound 42, 2,3-di-Cl BSHL] | 95% | 67.8 µM | fold lower IC50 value than 3-Cl BSHL (28) (RhlR; E. coli RhlR reporter IC50): over 2 fold
O=C1OCC[C@@H]1NS(=O)(=O)Cc1ccc(Cl)c(Cl)c1 [Compound 44, 3,4-di-Cl BnSHL] | 82% | 205 µM | –
O=C1OCC[C@@H]1NS(=O)(=O)c1ccc(Cl)c(Cl)c1Cl [Compound 45, 2,3,4-tri-Cl BSHL] | 80% | 1030 µM | reduction of potency relative to 3,4-Cl BSHL (43) (RhlR; E. coli RhlR reporter IC50): at least 2 orders of magnitude
COc1cccc(S(=O)(=O)N[C@H]2CCOC2=O)c1 [Compound 48] | 88% | 210 µM | –

Structure (SMILES) | max. RhlR inhibition (%) (RhlR; E. coli RhlR reporter) | IC50 (RhlR; [1]) | also measured
O=C1OCC[C@H]1NS(=O)(=O)c1ccc(Cl)c(Cl)c1 [Compound 55, 3,4-di-Cl BSHL] | 99% | 195 µM | –
O=C1OCC[C@@H]1NS(=O)(=O)c1ccc(Cl)c(C(F)(F)F)c1 [Compound 60] | 90% | 93.1 µM | –
O=C1OCC[C@@H]1NS(=O)(=O)c1ccc(F)c(Cl)c1 [Compound 64, 3-Cl, 4-F BSHL] | 90% | 31.3 µM | effect on bacterial growth (bacterial growth): modest effect on bacterial growth; fold higher potency relative to 3,4-di-Cl BSHL (43) (RhlR; E. coli RhlR reporter IC50): 2 fold
O=C1OCC[C@@H]1NS(=O)(=O)c1ccc(F)c([N+](=O)[O-])c1 [Compound 71, 3-NO2,4-F BSHL] | 62% | 257 µM | –
CCCS(=O)(=O)N[C@H]1CCOC1=O [Compound 72, C3-AHSL] | 45 ^f % | – | activity profile in RhlR (RhlR; E. coli RhlR reporter dose-response curves): weak partial agonist
O=C1OCC[C@@H]1NS(=O)(=O)c1ccc(Br)c(Cl)c1 [Compound 73, 3-Cl, 4-Br BSHL] | 98% | 118 µM | fold less potent than 43 (RhlR; E. coli RhlR reporter IC50): over 2 fold
CCCCS(=O)(=O)N[C@H]1CCOC1=O [Compound 74] | 70% | – | IC50 (RhlR; [2]): 35.2 µM; IC50 (RhlR; [3]): ~28 µM
O=C1OCC[C@@H]1NS(=O)(=O)c1ccc(F)c(C(F)(F)F)c1 [Compound 76] | 84% | 69.4 µM | –
O=C1OCC[C@@H]1NS(=O)(=O)c1cc(F)c(F)c(F)c1 [Compound 86, 3,4,5-F BSHL] | 80% | 24.5 µM | potency gain (RhlR; E. coli RhlR reporter IC50): ≤ 40 fold; fold higher potency relative to 3,4-di-Cl BSHL (43) (RhlR; E. coli RhlR reporter IC50): over 2 fold
O=C1OCC[C@@H]1NS(=O)(=O)c1cc(Cl)c(F)c(Cl)c1 [Compound 87, 3,5-Cl-4F BSHL] | 85% | 68 µM | fold higher potency relative to 3,4-di-Cl BSHL (43) (RhlR; E. coli RhlR reporter IC50): no change in potency
O=C1OCC[C@@H]1NS(=O)(=O)c1cccc(F)c1 [Compound 88, 3-fluoro BSHL] | 92% | 120 µM | –
O=C1OCC[C@@H]1NS(=O)(=O)c1c(Cl)cccc1Cl [Compound 89, 2,6-di-Cl-BSHL] | 86% | > 1000 µM | –
O=C1OCC[C@@H]1NS(=O)(=O)c1cc(Cl)ccc1Cl [Compound 90, 2,5-di-Cl BSHL] | 92% | 1100 µM | –
O=C1OCC[C@@H]1NS(=O)(=O)c1ccc(F)cc1 [Compound 91] | 97% | 301 µM | –
O=C1OCC[C@@H]1NS(=O)(=O)c1ccccc1F [Compound 92, 2-fluoro-BSHL] | 91% | 863 µM | –
Cc1cccc(S(=O)(=O)N[C@H]2CCOC2=O)c1 [Compound 93] | 95% | 127 µM | –
Cc1ccc(CC(=O)N[C@H]2CCOC2=O)cc1 [Compound C19, 4-Me PHL, reference compound] | 89% | 5.46 µM | –
O=C(Cc1ccc(C(F)(F)F)cc1)N[C@H]1CCOC1=O [Compound C20, 4-CF3 PHL, reference compound] | 93% | 10.3 µM | –
